This note sets out measurements from US20060252723A1, “Combined therapy utilizing reduction of DNA methyltransferase expression and/or activity and interferon” (Methylgene, Inc. The Cleveland Clinic Foundation, priority 2005, published 2006).

One series concerns RASSF1A. The series can be described thus: RT-PCR for RASSF1A. The class given is cell-based, human. The conditions noted are these: ACHN cells; data not shown.
The subject of series [1] is ACHN cells. The series can be described thus: TUNEL flow cytometric analysis of apoptosis. The class given is cell-based, human. The note with it: for resistance to IFN-induced apoptosis after pretreatment: FIG. 2A; for apoptosis, agent alone: FIG. 2B. On the procedure:
After the indicated time of DNMT1 inhibition cells were plated at 5000 cells/cm^2 for TUNEL assay with IFNs added 16 hr after plating. Four to 5 days after IFN administration cells were harvested and processed according to the manufacturer's instructions for TUNEL flow cytometric analysis (BD Pharmingen, San Diego, Calif.).
(In general: A flow cytometer gives signals particle by particle.)

The next series concerns the target T1, DNMT1 protein (Homo sapiens, UniProt P26358).
T1 construct: endogenous in cells; host or cells: ACHN renal cell carcinoma cells
The series can be described thus: DNMT1 protein immunoblot after DNMT1 AS or 5-AZA-dC treatment. The note with it: ACHN cells; 40 nM DNMT1 AS daily over 9 days or 200 nM 5-AZA-dC daily over 4 days; protein 4, 24, 48 hrs after last treatment. In kind it is cell-based. On the procedure:
ACHN Renal cell carcinoma cells were cultured at 37° C. in 5% CO2 using Minimum Essential Medium (GIBCO, Invitrogen, Carlsbad, Calif.) with 0.1 mM non-essential amino acids (GIBCO), 1.0 mM pyruvate (GIBCO), 10% fetal bovine serum, penicillin G (50 U/ml), and streptomycin (50 μg/ml). WM9 melanoma cells (13) were grown in RPMI medium (GIBCO) containing 10% fetal bovine serum, penicillin G (50 U/ml), and streptomycin (50 μg/ml) under the same incubator conditions.
To selectively downregulate DNMT1, cells were transfected with MG98 (MethylGene, Quebec, Canada), a second-generation 4×4 2′methyl phosphorothioate oligonucleotide antisense against the 3′ UTR of DNMT1 mRNA (5′-[…]-3) or mismatch (underlined) control oligonucleotide (5′-[…]-3′) (SEQ ID NO:40) at indicated concentrations starting one day after plating at 15000 cells/cm^2. Transfections were performed daily with 6.25 μg/ml Lipofectin (Invitrogen, Carlsbad, Calif.) in OptiMem (GIBCO, Invitrogen, Carlsbad, Calif.) over 4 hr. Before and after transfections cells were washed once with PBS. Every second day cells were replated at 15000 cells/cm^2 four hr after the preceding transfection. 5-AZA-dC (Sigma-Aldrich, St Louis, Mo.) stock solution (100 mM) in DMSO and working solutions for one time use in PBS (1 mM) were stored at −20° C. […]
A general note: In western blotting, separated proteins are transferred to a membrane and probed.

Series [2] has as its system ACHN cells. In words: real-time RT-PCR for stat1, stat2 genes. In kind it is cell-based, human. A general note: In qPCR the cycle at which signal appears reflects the starting amount.
Series [3] concerns ACHN cells. The series can be described thus: cDNA array analysis (Affymetrix U133A). The class given is cell-based, human. From the text: To identify additional genes reactivated through DNA demethylation and of potential importance for the sensitization to IFN-induced apoptosis we performed cDNA array analysis with RNA harvested from ACHN cells 24 hr after the 8th DNMT1 AS transfection and 16 hr after 50 U/ml IFN β 1a treatment. RNA was harvested as mentioned above using Trizol (Invitrogen, Carlsbad, Calif.) method followed by transcription into cRNA, according to Affymetrix (Santa Clara, Calif.) recommendations for U133A array hybridization. Expression was analyzed using Affymetrix software.

For series [4], the system named is ACHN cells. The series can be described thus: growth of ACHN cells (data not shown). In kind it is cell-based, human.
A further series has as its system RASSF1A promoter region. In words: methylation specific PCR of RASSF1A. In kind it is cell-based, human. The conditions noted are these: ACHN cells. On the procedure:
One microgram of genomic DNA, harvested with a blood DNA mini kit (Quiagen, Valencia, Calif.), was used for bisulfite modification with the CpGenome kit (Chemicon International, Temecula, Calif.) according to the manufacturer's instructions with final resuspension in 20 μl of 10 mM Tris/Ci, pH 8.5. Four μl of bisulfite modified DNA was used per 25 μl MSP reaction. Primers for RASSF1A MSP as published (15) were (5′ to 3′): M forward: GGG TTT TGC GAG AGC GCG (SEQ ID NO:41), M reverse: GCC AAG CGC AAA CAA TCG (SEQ ID NO:42), U forward: GGT TIT GTG AGA GTG TGT TTA G (SEQ ID NO:43), U reverse: AAACCAAACACAAACAATCAC (SEQ ID NO:44). PCR settings for methylated (M) primer pair were denaturation at 95° C. for 5 min, followed by 35 cycles with a 1 min denaturation step, 30 sec annealing at 60° C., and extension at 72° C. for 30 sec. Final extension after 35 cycles was at 72° C. for 4 min. For sequences specific for unmethylated (U) DNA settings were the same except for annealing at 55° C.

A further series relates to caspase 3. The series can be described thus: caspase 3 activity assay. In kind it is cell-based, human. The conditions noted are these: FIG. 3; pretreatment alone.
For a further series, the system named is tumour xenograft models. The series can be described thus: tumour xenograft models. In kind it is in vivo. The note with it: daily dosing compared to intermittent administration.
Series [5] is described as follows: Phase I studies of MG98, toxicity.

T1 sequence (P26358 whole entry): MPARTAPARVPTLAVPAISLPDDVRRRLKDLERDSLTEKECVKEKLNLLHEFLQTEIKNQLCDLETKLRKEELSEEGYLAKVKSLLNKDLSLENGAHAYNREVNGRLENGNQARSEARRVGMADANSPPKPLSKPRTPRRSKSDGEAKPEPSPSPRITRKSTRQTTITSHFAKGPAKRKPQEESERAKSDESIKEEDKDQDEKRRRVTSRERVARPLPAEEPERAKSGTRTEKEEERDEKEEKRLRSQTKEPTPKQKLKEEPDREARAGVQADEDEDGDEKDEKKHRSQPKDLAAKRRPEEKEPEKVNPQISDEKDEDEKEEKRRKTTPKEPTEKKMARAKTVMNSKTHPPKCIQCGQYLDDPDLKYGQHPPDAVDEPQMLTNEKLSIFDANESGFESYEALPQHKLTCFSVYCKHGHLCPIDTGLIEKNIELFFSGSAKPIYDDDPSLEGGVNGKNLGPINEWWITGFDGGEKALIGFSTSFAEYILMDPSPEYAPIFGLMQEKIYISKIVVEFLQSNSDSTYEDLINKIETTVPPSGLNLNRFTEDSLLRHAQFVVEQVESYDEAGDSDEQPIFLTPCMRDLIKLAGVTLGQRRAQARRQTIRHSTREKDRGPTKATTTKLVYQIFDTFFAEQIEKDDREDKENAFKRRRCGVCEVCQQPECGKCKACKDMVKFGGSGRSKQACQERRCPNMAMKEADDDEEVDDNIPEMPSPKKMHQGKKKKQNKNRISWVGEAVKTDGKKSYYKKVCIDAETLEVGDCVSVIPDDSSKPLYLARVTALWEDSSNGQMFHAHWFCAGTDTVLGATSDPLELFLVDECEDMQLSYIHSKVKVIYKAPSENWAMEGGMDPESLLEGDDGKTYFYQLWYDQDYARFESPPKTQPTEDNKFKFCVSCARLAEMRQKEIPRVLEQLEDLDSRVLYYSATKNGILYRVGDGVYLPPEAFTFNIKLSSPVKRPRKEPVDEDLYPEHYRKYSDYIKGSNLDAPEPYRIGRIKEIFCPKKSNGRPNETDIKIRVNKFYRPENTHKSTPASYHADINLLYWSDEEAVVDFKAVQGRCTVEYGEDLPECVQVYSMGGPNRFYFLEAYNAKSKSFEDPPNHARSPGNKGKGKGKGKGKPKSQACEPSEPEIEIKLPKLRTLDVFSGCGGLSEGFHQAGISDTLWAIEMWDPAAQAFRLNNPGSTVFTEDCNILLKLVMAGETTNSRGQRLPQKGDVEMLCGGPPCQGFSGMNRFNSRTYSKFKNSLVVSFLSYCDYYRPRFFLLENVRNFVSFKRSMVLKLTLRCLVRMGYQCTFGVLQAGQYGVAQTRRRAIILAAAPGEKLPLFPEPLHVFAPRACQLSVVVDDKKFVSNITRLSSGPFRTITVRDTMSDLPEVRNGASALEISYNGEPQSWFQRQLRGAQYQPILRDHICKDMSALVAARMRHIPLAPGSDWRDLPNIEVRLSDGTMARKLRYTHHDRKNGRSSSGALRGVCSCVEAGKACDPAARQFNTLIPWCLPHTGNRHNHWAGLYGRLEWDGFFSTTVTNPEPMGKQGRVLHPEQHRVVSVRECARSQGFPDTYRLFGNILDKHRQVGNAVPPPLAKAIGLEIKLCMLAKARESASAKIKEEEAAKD

As to “5′-TTAATGTAACCTAAGGTCAA-3′ (listed as DNA, chemistry not given here) [MM, mismatch control oligonucleotide]”, the “amplification of full length RASSF1A cDNA” value in the series on RASSF1A is “no band”. Further, the “cells apoptotic on TUNEL staining (up to)” value in the series with ACHN cells [1] (5-AZA-dC over 24 days or oligonucleotide transfection over 6 to 8 days, then 50 U/ml IFN α or IFN β, 4-5 days after IFN) is given as “not”. Also, in the series with ACHN cells [1], the “resistance to IFN-induced apoptosis after pretreatment” value (shortened to “resistance to IFN-induced apoptosis”) is given as “did not” and the “apoptosis, agent alone” value is on record as “did not result in significant apoptosis”.

In the case of “5′-UUCATGTCAGCCAAGGCCAC-3 (all phosphorothioate, sugars by position and methylation of C not given here; 2'-O-methyl gapmer) [MG98]”, the DNMT1 protein entry with DNMT1 protein is “suppressed up to 48 hrs”. In addition, in the series with ACHN cells [2], the “stat1 expression, fold change over untreated” value came out at 0.27 fold and the “stat2 expression, fold change over untreated” value is 1.05 fold. In the series on ACHN cells [3] (DNMT1 AS alone, data not shown), the “number of genes increased at least two-fold compared to the mismatch oligonucleotide” value was “One hundred and thirty-seven”. In addition, in the series on ACHN cells [3] (Table 2), the “expression of genes known to be involved in IFN-induced apoptosis” value is listed as “not significantly altered”. Besides, the “reduction in DNMT1 expression” value in the series with ACHN cells [3] (compared to mismatch oligonucleotide) is 94%. Also, the “expression of other DNMTs” value in the series on ACHN cells [3] (compared to mismatch oligonucleotide, data not shown) is recorded as “without affecting expression of other DNMTs”. Moreover, the “increase of IFN-stimulated gene IF127 over MM treated cells” value in the series with ACHN cells [3] (p<0.045) was “at least two-fold”. Further, in the series with ACHN cells [3] (relative to MM), the “Fold change in expression, Caspase 4” value was 1.41 (MI) fold; the “Fold change in expression, HSXIAPAF1 (XAF1)” value is 3.36 (NS) fold; the “Fold change in expression, IRF1” value is listed as 1.32 (NS) fold; the “Fold change in expression, OAS1” value was 0.80 (NS) fold. For the same molecule, in the series on ACHN cells [3] (relative to MM), the “Fold change in expression, PRKR (PKR)” value is listed as 0.71 fold; the “Fold change in expression, Stat1” value is 0.60 fold; the “Fold change in expression, Stat2” value is recorded as 0.68 (NS) fold; the “Fold change in expression, TNFSF10 (TRAIL/Apo2L)” value is reported as 0.93 (NS) fold. Moreover, the growth result with ACHN cells [4] is “reduced”. Further, the “methylation of RASSF1A promoter region” value in the series with RASSF1A promoter region is on record as “led to demethylation”. Further, the “amplification of full length RASSF1A cDNA” value in the series on RASSF1A is “single band”. In addition, in the series with ACHN cells [1], the “resistance to IFN-induced apoptosis” value is listed as “overcome” and the “apoptosis, agent alone” value is “did not result in significant apoptosis”. Moreover, the “caspase 3 activity” value with caspase 3 is on record as “increased caspase 3 activity”. The anti-tumour activity result in the series on tumour xenograft models is recorded as “greatest anti-tumour activity”. Besides, the “dose levels resulting in frequent adverse events” value in series [5] (Phase I, 21-day infusion) is given as “above 80 mg/m^2/day”. Further, the “toxicity seen in nephrectomized patients” value in [5] (intermittent schedule, 160 mg/m^2/day is 44% below the dose concerned) is recorded as “grade 3 transaminitis”.

Consider `Nc1ncn([C@H]2C[C@H](O)[C@@H](CO)O2)c(=O)n1` [5-AZA-dC, 5-aza-deoxycytidine, reference compound], for which, on DNMT1 protein, the DNMT1 protein entry is recorded as “suppressed up to 48 hrs”. Besides, in the series on ACHN cells [2], the “stat1 expression, fold change over untreated” value stood at 0.57 fold and the “stat2 expression, fold change over untreated” value was determined as 1.38 fold. The “resistance to IFN-induced apoptosis” value with ACHN cells [1] is on record as “overcome”. Further, in the series with ACHN cells [1] (agent alone, no IFN, 5-AZA-dC 4 days), the TUNEL positive amounted to 20%. The “caspase 3 activity” value in the series with caspase 3 is recorded as “increased caspase 3 activity”.
